Measured values reported in patent US20230172930A1, “USE OF COMPLEMENT FACTOR D INHIBITORS ALONE OR IN COMBINATION WITH ANTI-C5 ANTIBODIES FOR TREATMENT OF PAROXYSMAL NOCTURNAL HEMOGLOBINURIA” (Alexion Pharmaceuticals, Inc., priority 2020, published 2023).
Where “and” joins values, the source holds several entries; their conditions need not be identical. Identical values can stand only once.

Key:
[1] = system: PNH patients with an inadequate response to eculizumab; test: Phase 2 study: safety and tolerability (TEAEs)
From the text: After completing 24 weeks of treatment, patients entered a long-term extension.

[2] = Phase 2 study: plasma danicopan pharmacokinetics (LC-MS/MS); assay type: in vivo, human
From the text: The mean (% CV) Ctrough value was 105 (57) ng/mL during these intensive sampling days. Sampling at through times over the rest of the study duration under less controlled conditions yielded a mean (% CV) Ctrough value of 150 (59) ng/mL.

[3] = Phase 2 study: PNH clone size and C3 fragment deposition on erythrocytes by flow cytometry (anti-human C3d antibody); assay type: in vivo
Protocol: (§1) FIGS. 4A-4D are graphs depicting the effect on complement biomarkers and PNH clone size. […] Arithmetic mean and standard derivation (SD) were shown for all but the clone size of C3d^+ PNH erythrocytes where geometric mean was used, and the range was shown at each time point. NHS, normal human serum; BL, baseline; LLN, lower limit normal; ULN, upper limit normal.
(§2) Pharmacodynamics were determined by measuring serum AP activity with AP hemolysis assay. Serum CP activity, Plasma Bb concentration, serum FD, and C3 concentrations were also monitored. Complement tests were conducted by a central lab using commercial kits, with the exception of AP hemolysis assay which was conducted internally for exploratory purposes. At each AP hemolysis run, a single normal human serum sample was included in addition to the patient serum samples so hemolysis values of individual patient serum samples could be standardized to the hemolysis value of the normal human serum sample. Finally, PNH clone size and C3 fragment deposition on erythrocytes was measured using flow cytometry with FITC conjugated anti-human C3d antibody.

[4] = system: PNH erythrocytes; test: as above; assay type: in vivo
Protocol: as §1, §2

[5] = N=11, Baseline, before danicopan, on eculizumab
[6] = Patient A, Baseline, before danicopan, on eculizumab 900 mg q14d
[7] = Patient B, Baseline, before danicopan, on eculizumab 1200 mg q14d
[8] = Patient C, Baseline, before danicopan, on eculizumab 900 mg q14d
[9] = Patient C, Week 12, danicopan 150 mg TID + eculizumab 900 mg q14d
[10] = Patient C, Week 24, danicopan 150 mg TID + eculizumab 900 mg q14d
[11] = Patient D, Baseline, before danicopan, on eculizumab 900 mg q14d
[12] = Patient D, Week 12, danicopan 150 mg TID + eculizumab 900 mg q14d
[13] = Patient D, Week 24, danicopan 150 mg TID + eculizumab 900 mg q14d
[14] = Patient E, Baseline, before danicopan, on eculizumab 1200 mg q14d
[15] = Patient E, Week 12, danicopan 150 mg TID + eculizumab 1200 mg q14d
[16] = Patient E, Week 24, danicopan 150 mg TID + eculizumab 1200 mg q14d
[17] = Patient F, Baseline, before danicopan, on eculizumab 900 mg q14d
[18] = Patient F, Week 12, danicopan 150 mg TID + eculizumab 900 mg q14d
[19] = Patient F, Week 24, danicopan 150 mg TID + eculizumab 900 mg q14d
[20] = Patient G, Baseline, before danicopan, on eculizumab 1500 mg q14d
[21] = Patient G, Week 12, danicopan 100 mg TID + eculizumab 1500 mg q14d
[22] = Patient G, Week 24, danicopan 100 mg TID + eculizumab 1500 mg q14d
[23] = Patient H, Baseline, before danicopan, on eculizumab 900 mg q14d
[24] = Patient H, Week 12, danicopan 200 mg TID + eculizumab 900 mg q14d
[25] = Patient I, Baseline, before danicopan, on eculizumab 900 mg q14d
[26] = Patient I, Week 12, danicopan 100 mg TID + eculizumab 900 mg q14d
[27] = Patient J, Baseline, before danicopan, on eculizumab 1200 mg q14d
[28] = Patient J, Week 12, danicopan 100 mg TID + eculizumab 1200 mg q14d
[29] = Patient J, Week 24, danicopan 200 mg TID + eculizumab 1200 mg q14d
[30] = Patient K, Baseline, before danicopan, on eculizumab 900 mg q14d
[31] = Patient K, Week 12, danicopan 100 mg TID + eculizumab 900 mg q14d
[32] = Patient K, Week 24, danicopan 150 mg TID + eculizumab 900 mg q14d

## CC(=O)c1nn(CC(=O)N2C[C@H](F)C[C@H]2C(=O)Nc2cccc(Br)n2)c2ccc(-c3cnc(C)nc3)cc12 [Danicopan, danicopan]
[1]; 11 patients completing treatment
  discontinuations due to TEAEs: no discontinuations due to TEAEs
[1]; Day 70, resolved by Day 77, attributed to breakthrough hemolysis
  Grade 3 direct bilirubin elevation with grade 1 ALT elevation: One patient experienced a Grade 3 direct bilirubin elevation
[1]; Day 145, recovered Day 152, relationship to study drug considered unlikely
  severe adverse event of pneumonia requiring hospitalization: The second patient experienced a severe adverse event of pneumonia
[1]; N=11
  Number of Patients Reporting a TEAE, %: (100) %
[1]; TEAE, N=11
  Abdominal pain, %: (18) %
  Contusion, %: (18) %
  Cough, %: (18) %
  Fatigue, %: (18) %
  Headache, %: (27) %
  Nasopharyngitis, %: (18) %
  Nausea, %: (18) %
  Oropharyngeal, %: (18) %
  Pain in extremity, %: (18) %
[1]; danicopan 100-200 mg TID + eculizumab, 24 weeks
  tolerability: generally well tolerated
[1]; of twelve enrolled, considered unlikely related to danicopan
  discontinuation due to serious adverse event (worsening pulmonary hypertension/edema): One discontinued after 2 doses
[1]; share of treatment TEAEs
  TEAEs mild to moderate in severity: 96%
[2]; intensive sampling days, Week 7
  Ctrough, mean (% CV): 105 (57) ng/mL
[2]; trough sampling over the rest of the study, less controlled conditions
  Ctrough, mean (% CV): 150 (59) ng/mL
[3]; Week 24
  clone size of PNH granulocytes, mean±SD: 95±7.2%
[3]; baseline
  clone size of PNH granulocytes, mean±SD: 92±9.2%
[4]; N=7, Week 24, danicopan 100-200 mg TID + eculizumab
  PNH RBC clone size, mean: 84±22.1% and 84%
[4]; [5]
  C3d^+ PNHRBCs, geometric mean: 22% and 22.2%
  PNH RBC clone size, mean: 54±24.9% and 54%
[4]; N=11, Week 24, danicopan 100-200 mg TID + eculizumab
  C3d^+ PNHRBCs, geometric mean: 6.7% and 6.68%
[4]; [6]
  C3d^+ PNHRBCs: 6.30%
  PNH RBC clone size: 41%
[4]; Patient A, Week 12, danicopan 150 mg TID + eculizumab 900 mg q14d
  PNH RBC clone size: 83%
[4]; Patient A, Week 24, danicopan 150 mg TID + eculizumab 900 mg q14d
  C3d^+ PNHRBCs: 2.20%
[4]; [7]
  C3d^+ PNHRBCs: 8.20%
  PNH RBC clone size: 80%
[4]; Patient B, Week 12, danicopan 100 mg TID + eculizumab 900 mg q14d
  PNH RBC clone size: 89%
[4]; Patient B, Week 24, danicopan 100 mg TID + eculizumab 900 mg q14d
  C3d^+ PNHRBCs: 1.00%
[4]; [8]
  C3d^+ PNHRBCs: 17.5%
  PNH RBC clone size: 22%
[4]; [9]
  C3d^+ PNHRBCs: 18.6%
  PNH RBC clone size: 59%
[4]; [10]
  C3d^+ PNHRBCs: 16.7%
  PNH RBC clone size: 51%
[4]; [11]
  C3d^+ PNHRBCs: 15.9%
  PNH RBC clone size: 52%
[4]; [12]
  C3d^+ PNHRBCs: 0.200%
  PNH RBC clone size: 99%
[4]; [13]
  C3d^+ PNHRBCs: 5.20%
  PNH RBC clone size: 100%
[4]; [14]
  C3d^+ PNHRBCs: 21.3%
  PNH RBC clone size: 21%
[4]; [15]
  C3d^+ PNHRBCs: 11.8%
  PNH RBC clone size: 37%
[4]; [16]
  C3d^+ PNHRBCs: 4.90%
  PNH RBC clone size: 53%
[4]; [17]
  C3d^+ PNHRBCs: 71.0%
  PNH RBC clone size: 95%
[4]; [18]
  C3d^+ PNHRBCs: 48.0%
  PNH RBC clone size: 99%
[4]; [19]
  C3d^+ PNHRBCs: 53.4%
  PNH RBC clone size: 98%
[4]; [20]
  C3d^+ PNHRBCs: 80.0%
  PNH RBC clone size: 62.8%
[4]; [21]
  C3d^+ PNHRBCs: 29.4%
  PNH RBC clone size: 90.4%
[4]; [22]
  C3d^+ PNHRBCs: 57.0%
  PNH RBC clone size: 96.0%
[4]; [23]
  C3d^+ PNHRBCs: 38.8%
  PNH RBC clone size: 19%
[4]; [24]
  C3d^+ PNHRBCs: 14.9%
  PNH RBC clone size: 71%
[4]; Patient H, Week 24, danicopan 200 mg TID + eculizumab 900 mg q14d
  C3d^+ PNHRBCs: 22.8%
[4]; [25]
  C3d^+ PNHRBCs: 13.6%
  PNH RBC clone size: 73%
[4]; [26]
  C3d^+ PNHRBCs: 0.400%
  PNH RBC clone size: 95%
[4]; Patient I, Week 24, danicopan 200 mg TID + eculizumab 900 mg q14d
  C3d^+ PNHRBCs: 0.100%
[4]; [27]
  C3d^+ PNHRBCs: 34.3%
  PNH RBC clone size: 60%
[4]; [28]
  C3d^+ PNHRBCs: 59.5%
  PNH RBC clone size: 99%
[4]; [29]
  C3d^+ PNHRBCs: 28.7%
  PNH RBC clone size: 99%
[4]; [30]
  C3d^+ PNHRBCs: 20.2%
  PNH RBC clone size: 55%
[4]; [31]
  C3d^+ PNHRBCs: 44.2%
  PNH RBC clone size: 84%
[4]; [32]
  C3d^+ PNHRBCs: 6.30%
  PNH RBC clone size: 91%
